Measurements from patent publication US10213391B2, “Pharmaceutical compositions comprising hemp and turmeric to treat pain and inflammation” (priority 2014, dated 2019).

Legend:
pain = test: 7 volunteer pain relief study; format: in vivo, human; details: for Relief: single agent: Curcumin 30 mg or Hemp CBD 20 mg, formulations contain magnesium
From the text: All of the above formulations contain magnesium. Patients received the combination of CBD and curcumin in the following formulation comprising: (a) hemp derived terpiniods and oil; (b) turmeric as curcumin and; (c) magnesium.

[1] = system: Chronic constriction injury (CCI) in mice; details: p.o., twice per day for three weeks, cited from earlier work
[2] = chronic, but not acute, treatment 5, 15 or 45 mg/kg

**Q.** What does the source list for `COc1cc(/C=C/C(=O)CC(=O)/C=C/c2ccc(O)c(OC)c2)ccc1O` [Curcumin, curcumin]?
**A.** Relief (pain; Subject 1, (California), joint pain): Partial relief; Relief (pain; Subject 2, (California), migraine): Partial relief; Relief (pain; Subject 4, (Colorado), back pain): Partial relief; Relief (pain; Subject 5, (California), back pain): Partial relief; pain relief (pain; summary of the 7 volunteer study, patients taking the agents singly): partial pain relief; spinal monoamine (or metabolite) contents ([1]; chronic treatment 5, 15 or 45 mg/kg): increasing; mechanical allodynia (von Frey hair) [1, 2]: alleviated; thermal hyperalgesia (hot plate test) [1, 2]: alleviated
